Test [1] deals with MCF7. The test is described as follows: Antitumor activity against human MCF7 cells assessed as reduction in cell viability incubated for 72 hrs by CCK8 assay. The class given is functional, cell-based. The note with it: MCF7, 72 h. Background: Tetrazolium assays rely on reduction of a dye to a coloured formazan, in cell work by metabolically active cells.
Test [2] has as its system MCF7. The test is described as follows: Antitumor activity against human MCF7 cells assessed as decrease in number of viable cells at 0.05 to 0.2 uM incubated for 24 hrs by Hoechst 33342 staining based confocal microscopic analysis. In kind it is functional, cell-based. Particulars: dose 0.05-0.2 µM.
Test [3] relates to MCF7. The test is described as follows: Antitumor activity against human MCF7 cells assessed as decrease in nuclear volume at 0.05 to 0.2 uM incubated for 24 hrs by Hoechst 33342 staining based confocal microscopic analysis. Particulars: dose 0.05-0.2 µM. The class given is functional, cell-based.
Test [4] relates to MCF7. The test is described as follows: Antitumor activity against human MCF7 cells assessed as […] at 0.05 to 0.2 uM incubated for 24 hrs by Hoechst 33342 staining based confocal microscopic analysis. In kind it is functional, cell-based. Particulars: dose 0.05-0.2 µM.
The test system of test [5] is MCF7. The test can be described thus: Inhibition of colony formation in human MCF7 cells assessed as reduction in clone formation rate at 0.05 to 0.2 uM measured after 14 days by giemsa staining based dissection microscopic analysis. In kind it is functional, cell-based. The note with it: dose 0.05-0.2 µM, time 14.0 day.
Test [6] concerns MCF7. The test is described as follows: Inhibition of colony formation in human MCF7 cells assessed as reduction in number of colonies measured after 14 days by giemsa staining based dissection microscopic analysis. The class given is functional, cell-based. The note with it: dose 0.05-0.2 µM, time 14.0 day.
In test [7] the test system is MCF7. The test is described as follows: Induction of apoptosis in human MCF7 cells assessed as increase in death ratio at 0.05 to 0.2 uM by Annexin V-FITC/PI staining based flow cytometric analysis. The class given is functional, cell-based. Particulars: dose 0.05-0.2 µM.
For test [8], the system named is Mitochondrial membrane. The test can be described thus: Induction of mitochondrial membrane potential loss in human MCF7 cells assessed as reduction in JC-1 aggregate formation at 0.05 to 0.2 uM incubated for 48 hrs by JC-1 staining based confocal microscopic analysis. In kind it is cell membranes. Particulars: dose 0.05-0.2 µM.
In test [9] the test system is Mitochondrial membrane. The test can be described thus: Induction of mitochondrial membrane potential loss in human MCF7 cells assessed as increase in JC-1 monomer level at 0.05 to 0.2 uM incubated for 48 hrs by JC-1 staining based confocal microscopic analysis. In kind it is cell membranes. Particulars: dose 0.05-0.2 µM.
In test [10] the test system is MCF7. The test can be described thus: Induction of apoptosis in human MCF7 cells assessed as increase in Bax level at 0.05 to 0.2 uM incubated for 48 hrs by Western blot analysis. In kind it is functional, cell-based. The note with it: dose 0.05-0.2 µM.
In test [11] the test system is MCF7. The test can be described thus: Induction of apoptosis in human MCF7 cells assessed as increase in caspase 3 level at 0.05 to 0.2 uM incubated for 48 hrs by Western blot analysis. In kind it is functional, cell-based. Particulars: dose 0.05-0.2 µM. (In general: A western blot detects proteins with antibodies after separation by electrophoresis.)
Test [12] relates to MCF7. The test is described as follows: Induction of ferroptosis in human MCF7 cells assessed as reduction in GPX4 expression at 0.05 to 0.2 uM incubated for 48 hrs by Western blot analysis. In kind it is functional, cell-based. Particulars: dose 0.05-0.2 µM.
Test [13] deals with MCF7. The test is described as follows: Induction of apoptosis in human MCF7 cells assessed as viable cells at 0.05 uM by Annexin V-FITC/PI staining based flow cytometric analysis (reference value: 92.01 %). In kind it is functional. The note with it: read-out: Activity.
In test [14] the test system is MCF7. The test is described as follows: Induction of apoptosis in human MCF7 cells assessed as early apoptotic cells at 0.05 uM by Annexin V-FITC/PI staining based flow cytometric analysis (reference value: 5.75 %). The class given is functional. For orientation: A flow cytometer gives signals particle by particle.
In test [15] the test system is MCF7. The test is described as follows: Induction of apoptosis in human MCF7 cells assessed as late apoptotic cells at 0.05 uM by Annexin V-FITC/PI staining based flow cytometric analysis (reference value: 1.97 %). In kind it is functional.
Test [16] deals with MCF7. The test can be described thus: Induction of apoptosis in human MCF7 cells assessed as necrotic cells at 0.05 uM by Annexin V-FITC/PI staining based flow cytometric analysis (reference value: 0.27 %). The class given is functional.
Test [17] has as its system MCF7. The test can be described thus: Induction of apoptosis in human MCF7 cells assessed as viable cells at 0.1 uM by Annexin V-FITC/PI staining based flow cytometric analysis (reference value: 92.01 %). The class given is functional. The note with it: read-out: Activity.
The subject of test [18] is MCF7. The test is described as follows: Induction of apoptosis in human MCF7 cells assessed as early apoptotic cells at 0.1 uM by Annexin V-FITC/PI staining based flow cytometric analysis (reference value: 5.75 %). The class given is functional.
The test system of test [19] is MCF7. The test is described as follows: Induction of apoptosis in human MCF7 cells assessed as late apoptotic cells at 0.1 uM by Annexin V-FITC/PI staining based flow cytometric analysis (reference value: 1.97 %). The class given is functional.
Test [20] concerns MCF7. The test is described as follows: Induction of apoptosis in human MCF7 cells assessed as necrotic cells at 0.1 uM by Annexin V-FITC/PI staining based flow cytometric analysis (reference value: 0.27 %). The class given is functional.
Test [21] deals with MCF7. The test can be described thus: Induction of apoptosis in human MCF7 cells assessed as viable cells at 0.2 uM by Annexin V-FITC/PI staining based flow cytometric analysis (reference value: 92.01 %). In kind it is functional. Particulars: read-out: Activity.
Test [22] has as its system MCF7. The test is described as follows: Induction of apoptosis in human MCF7 cells assessed as early apoptotic cells at 0.2 uM by Annexin V-FITC/PI staining based flow cytometric analysis (reference value: 5.75 %). In kind it is functional.
Test [23] deals with MCF7. The test is described as follows: Induction of apoptosis in human MCF7 cells assessed as late apoptotic cells at 0.2 uM by Annexin V-FITC/PI staining based flow cytometric analysis (reference value: 1.97 %). The class given is functional.
For test [24], the system named is MCF7. The test is described as follows: Induction of apoptosis in human MCF7 cells assessed as necrotic cells at 0.2 uM by Annexin V-FITC/PI staining based flow cytometric analysis (reference value: 0.27 %). In kind it is functional.

The structures appear in SMILES notation. Activity calls are given as the source filed them. The rule behind the calls is not given here.

Consider 5 molecules from ChEMBL document CHEMBL6103587, “Anti-tumor effects of artemisinin-based oligomers: From monomer to trimer as a novel drug-enhancing strategy” (Eur J Med Chem, 2025).

One may read the IC50 as the concentration that inhibits the measured activity by half.

Regarding `C[C@H]1[C@@H](OCCN(CCO[C@H]2O[C@@H]3O[C@@]4(C)CC[C@H]5[C@H](C)CC[C@@H]([C@H]2C)[C@@]35OO4)CCO[C@H]2O[C@@H]3O[C@@]4(C)CC[C@H]5[C@H](C)CC[C@@H]([C@H]2C)[C@@]35OO4)O[C@@H]2O[C@@]3(C)CC[C@H]4[C@H](C)CC[C@@H]1[C@@]24OO3`, the IC50 in the test with MCF7 [1] was 0.09 µM. Besides, the outcome in the test with MCF7 [2], with MCF7 [3], in the test with MCF7 [4], in the test on MCF7 [7], in the test with MCF7 [10] and in the test with MCF7 [11] was Active. In addition, in the test on MCF7 [12], the outcome was Active. Besides, the inhibition entry with MCF7 [5] is “Active”. Moreover, the inhibition entry with MCF7 [6] was “Dose-dependent-effect”. The Activity entry in the test on Mitochondrial membrane [8] was “Active; Partial Loss Of Membrane Potential Observed”; with Mitochondrial membrane [9] it was “Active; Partial Loss Of Membrane Potential Observed”; with MCF7 [14], 13.23%; in the test on MCF7 [15], 9.54%; in the test on MCF7 [16] it was 0.74%; in the test with MCF7 [18], 14.22%. Also, the Activity in the test with MCF7 [19] came out at 10.27%; with MCF7 [20] it was 1.14%; with MCF7 [22] it was 16.86%; with MCF7 [23], 20.21%; in the test on MCF7 [24] it was 0.48%. Also, the viability at 0.05 µM in the test on MCF7 [13] was 76.5%. Also, the viability at 0.1 µM with MCF7 [17] was found to be 74.4%. For the same molecule, in the test with MCF7 [21], the viability at 0.2 µM is 62.5%.
As to `Nc1ccn([C@@H]2O[C@H](CO)[C@@H](O)C2(F)F)c(=O)n1` [GEMCITABINE], the IC50 in the test with MCF7 [1] worked out at 4.33 µM.
As for `C[C@H]1[C@@H](OCCNCCO[C@H]2O[C@@H]3O[C@@]4(C)CC[C@H]5[C@H](C)CC[C@@H]([C@H]2C)[C@@]35OO4)O[C@@H]2O[C@@]3(C)CC[C@H]4[C@H](C)CC[C@@H]1[C@@]24OO3`, in the test with MCF7 [1], the concentration for half-maximal inhibition (IC50) turned out to be 3.14 µM.
Regarding `C[C@H]1[C@@H](OCCN)O[C@@H]2O[C@@]3(C)CC[C@H]4[C@H](C)CC[C@@H]1[C@@]24OO3`, the IC50 with MCF7 [1] was more than 10 µM.
Consider `C[C@H]1[C@@H](O)O[C@@H]2O[C@@]3(C)CC[C@H]4[C@H](C)CC[C@@H]1[C@@]24OO3` [ARTENIMOL], for which, in the test with MCF7 [1], the half-inhibitory concentration (IC50) was more than 10 µM.
